Key:
[1] = tested on: laser-induced DNA damage sites in U2OS cells; experiment: Laser microirradiation, GFP-PAXX and mCherry-XLF coexpressed in U2OS cells with WT or mutated Ku70; format: cell-based, human; conditions: U2OS cells expressing Ku70 mutants; Fig. 5, B to E
[2] = tested on: laser-induced DNA damage sites in U2OS cells; experiment: Laser microirradiation, GFP-PAXX recruitment in mAID-Ku70 U2OS cells with WT or mutated Ku70; format: cell-based, human; conditions: mAID-Ku70 U2OS cells + IAA, Fig. 3B
Excerpt: We also purified three mutants of Ku70 complexed to WT Ku80 (fig. S7). […] To assess the impact of Ku70 mutations in cells, we engineered a system in U2OS cells to allow replacement of endogenous Ku70 by mutant forms of the protein (Fig. 3A). As Ku is essential for the viability of human cells, we first knocked down endogenous Ku70 expression via the constitutive expression of a short hairpin–mediated RNA (shRNA) combined with cell rescue through expression of Ku70 tagged with a mini auxin-inducible degron (mAID). This allows for rapid degradation of endogenous Ku70 upon addition of auxin [indole-3-acetic acid (IAA)] ([28]). This system permits a strong and fast Ku70 depletion, with concomitant Ku80 depletion due to reciprocal stabilization of both Ku subunits (Fig. 3A).
The generation of U2OS cells expressing a mAID-Ku70 in place of the endogenous protein was achieved as follows. First, U2OS cells were cotransduced with two lentiviral constructs allowing both the expression of an shRNA against Ku70 and the expression of a Ku70 protein resistant to the shRNA and fused to a mAID tag at its N terminus. The latter vector also expresses a puromycin resistance gene, enabling the selection of a transduced cell population. […]

[3] = tested on: mutants of Ku70 complexed to WT Ku80; experiment: ITC, mutant Ku70 (complexed to WT Ku80) with P-KBM; format: binding; conditions: three Ku70 mutants complexed to WT Ku80 (fig. S7)
Excerpt: DNA-PKcs and full-length His-tagged Ku70/80 were expressed and purified according to ([6]). For crystallography and ITC, the full-length Ku70/80 and a truncated version deleted of its C terminus regions called KuΔC [Ku70 (1 to 544)/Ku80 (1 to 555)], were expressed in Sf21 insect cells using a MultiBac expression system. The Ku80 subunit contains a 10xHis-tag, followed by a Tobacco Etch Virus (TEV) protease site on its N terminus. The Ku70/Ku80 heterodimer was purified according to the protocol described in ([10]). The three KuFL variants with single mutation H162A, R165E, or R517E on Ku70 subunits were expressed in insect cells and purified with the same protocol.
Interaction between Ku-DNA complex and the different peptides (WT and variants) was measured by isothermal calorimetry using a VP-ITC machine. For ITC measurements, the full-length Ku heterodimer was used with the DNA G and F as previously used in ([14]). Before measurements, the Ku heterodimer was extensively dialyzed against buffer [20 mM tris (pH 8), 150 mM NaCl, and 5 mM β-mercaptoethanol]. The cell reaction (1.8 ml) was loaded with the preformed Ku-DNA complex at a 1:1.2 molar ratio respectively. Ku was loaded at 5 μM concentration. The syringe (300 μl) was loaded with the different peptides at different concentrations ranging between 50 and 100 μM. The Ku-DNA complex was titrated by automatic injections of 10 μl at 25°C. […]

XLF = experiment: Direct PAXX-XLF interaction test; format: binding; conditions: tested outside the DNA-PK LR complex; method not described
[4] = tested on: damaged chromatin fraction of U2OS cells expressing WT or mutated Ku70; experiment: Western blot of chromatin fractions after calicheamicin; format: cell-based, human; conditions: 3 nM calicheamicin for 1 hour, Fig. 3E

Question: For “GFP-PAXX: GFP-tagged PAXX construct expressed in U2OS cells”, which “recruitment of coexpressed GFP-PAXX / mCherry-XLF to DNA damage sites with Ku70 mutations” value [1] is on record?
Answer: The value was “compromised to various extents”.

Question: For “WT Ku70: recombinant wild-type Ku70 used to replace degraded endogenous Ku70”, which “PAXX recruitment to microirradiated areas, restored by recombinant Ku70” value ([2]; complemented with WT Ku70) is on record?
Answer: Its value is “restored to levels similar to those in native U2OS cells”.

Question: `CC[C@H](C)[C@H](NC(=O)[C@H](CC(C)C)NC(=O)[C@H](CO)NC(=O)[C@H](CCC(=O)O)NC(=O)CNC(=O)[C@@H]1CCCN1C(=O)[C@H](CS)NC(=O)[C@H](CCCNC(=N)N)NC(=O)[C@H](CCCNC(=N)N)NC(=O)[C@H](CCCNC(=N)N)NC(C)=O)C(=O)N[C@@H](CC(N)=O)C(=O)N1CCC[C@H]1C(=O)NCC(=O)N[C@@H](Cc1ccccc1)C(=O)N[C@@H](CCCCN)C(=O)N[C@@H](CO)C(=O)N[C@@H](CCCCN)C(=O)N[C@@H](CCCCN)C(=O)N1CCC[C@H]1C(=O)N[C@@H](C)C(=O)NCC(=O)NCC(=O)N[C@H](C(=O)N[C@@H](CC(=O)O)C(=O)N[C@@H](Cc1ccccc1)C(=O)N[C@@H](CC(=O)O)C(=O)N[C@@H](CCC(=O)O)C(=O)N[C@H](C(=O)O)[C@@H](C)O)C(C)C` [KBM] was tested. Which “residual interaction of Ku70 mutants with P-KBM (ITC, words)” value [3] did it give?
Answer: The value was “no residual interaction”.

Question: What does the source list for “PAXX: full-length PAXX, paralog of XRCC4 and XLF, 6xHis-tag, expressed in E. coli; WT protein also expressed in cells”?
Answer: PAXX recruitment to damage sites under Ku depletion ([2]; no complementation): abolished under Ku depletion conditions; direct interaction of PAXX and XLF (XLF): did not observe a direct interaction when tested; recruitment to damaged chromatin fraction, Ku70 Patch 1 or Patch 2 mutated [4]: not detected in damaged chromatin fraction
